# Like-named read-outs stand apart in the source and are kept apart here.
# Key:
# [1] = molecular target: T1, Histamine H3 receptor (Rattus norvegicus, UniProt Q9QYN8); test: In Vitro Histamine H3 Receptor Binding Analysis ([3H]-Nα-methylhistamine, rat cortical membranes); conditions: pH 7.4, 25° C., 40 minutes
# T1 construct: Rat cortices were mechanically homogenized; from tissue; host or cells: rat cerebral cortex membranes
# Protocol: Histamine H3 receptor affinity was determined in rat cortical membranes using the H3 selective agonist ligand, [^3 H]-N^α -methylhistamine (78.9 Ci/mmole, DuPont NEN Research Products, Boston, Mass.) according to the method of West et al., (1990) Mol. Pharmacol. 38: 610-613 with modifications. Briefly, animals were sacrificed by decapitation and the cerebral cortex was rapidly removed. Rat cortices were mechanically homogenized with an Omni 1000 motor driven homogenizer in 10 volumes (wt/vol) of Krebs-Ringers Hepes buffer (pH 7.4) containing the following protease inhibitors; EDTA (10 mM), PMSF (0.1 mM), chymostatin (0.2 mg/50 mL) and leupeptin (0.2 mg/50 mL). The homogenate was centrifuged in a Sorvall at ~40,000× g for 30 min. […] Protein concentrations were determined by Coomassie Plus Protein Assay (Pierce, Rockford, Ill.).
# The binding assay was carried out in polypropylene tubes in a total volume of 0.4 ml of 50 mM Na^+ Phosphate buffer (pH 7.4), containing 150-200 μg of tissue protein, 0.8-1.2 nM [^3 H]-N^α -methylhistamine and 0.3 to 10,000 nM GT-2016. […] Filters were transferred to polyethylene minivials and counted in 3.5 ml of scintillation fluid (Ecolume, ICN Biomedicals, Inc.). […] Saturation and competition experiments were analyzed with the ReceptorFit saturation and competition curve fittingprograms (Lundon Software, Inc., Cleveland, OH).
# [2] = test system: H3 histamine receptor; conditions: tested as a racemic mixture; cited from earlier work
# [3] = intraventricular, rabbits; cited from earlier work
# [4] = intraventricular, saline and pentobarbital-treated rats; cited from earlier work
# [5] = test system: H3 receptor; conditions: cited from earlier work
# [6] = test system: H3 receptor; conditions: cat (Lin et al., 1990); cited from earlier work
# [7] = test system: H3 receptor; conditions: rats; cited from earlier work
# [8] = test system: synthesis and release of histamine; conditions: in vivo studies; cited from earlier work
# T1 sequence (Q9QYN8 whole entry): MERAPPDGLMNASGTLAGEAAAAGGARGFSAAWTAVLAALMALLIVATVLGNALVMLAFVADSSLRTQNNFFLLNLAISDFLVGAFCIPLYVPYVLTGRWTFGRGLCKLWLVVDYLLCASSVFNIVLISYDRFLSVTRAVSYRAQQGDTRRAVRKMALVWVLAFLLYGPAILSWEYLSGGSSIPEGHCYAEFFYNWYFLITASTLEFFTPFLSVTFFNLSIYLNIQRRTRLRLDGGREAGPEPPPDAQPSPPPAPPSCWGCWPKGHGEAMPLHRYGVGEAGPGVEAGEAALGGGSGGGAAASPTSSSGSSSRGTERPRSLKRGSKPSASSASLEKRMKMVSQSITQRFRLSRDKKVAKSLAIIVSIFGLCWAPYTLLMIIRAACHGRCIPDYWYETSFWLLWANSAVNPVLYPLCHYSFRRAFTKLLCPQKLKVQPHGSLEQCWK
compound,measurement,setting,value
NC1CCC(c2c[nH]cn2)CC1 (stereo not drawn),Ki,[1],20 nM
NC1CC1c1c[nH]cn1 (racemic) [2-(4-imidazoyl)-cyclopropylamine],H3 histamine receptor agonist activity,[2],moderate
NCCc1c[nH]cn1 [histamine],arousal EEG pattern,[3],induces the appearances of an arousal EEG pattern
same,"spontaneous locomotor activity, grooming and exploratory behavior",[4],increased
same,stimulation of the H3 autoreceptor,[5],capable of stimulating this autoreceptor
S=C(NC1CCCCC1)N1CCC(c2cnc[nH]2)CC1 [thioperamide],wakefulness,[6],enhanced wakefulness in a dose-dependent fashion
same,slow wave and REM sleep,[7],decrease slow wave and REM sleep
same,wakefulness,[7],increase wakefulness
same,synthesis and release of histamine,[8],can increase

# From patent US6072057A, “1H-4(5)-cyclo-substituted imidazole derivatives as histamine H3 receptor agents” (Gliatech Inc., priority 1998, dated 2000)
